Results reported in patent US20250296934A1, “AZEPINOINDOLES AND METHODS OF PREPARATION THEREOF” (priority 2022, published 2025).
pEC50: −log10 of the molar value. Read-outs that look alike come from different tables or passages of the source.

Experiments:
5-HT1B = 5-HT1B (Homo sapiens, UniProt P28222); test: 5-HT receptor activity (Table 3), 5-HT1B; assay type: cell-based
5-HT2C = molecular target: T1, 5-HT2C (Homo sapiens, UniProt P28335); test: cell-based; assay type: cell-based; set-up: expressed in transfected cells; host or cells: HEK293T
T1 sequence (P28335 33-458): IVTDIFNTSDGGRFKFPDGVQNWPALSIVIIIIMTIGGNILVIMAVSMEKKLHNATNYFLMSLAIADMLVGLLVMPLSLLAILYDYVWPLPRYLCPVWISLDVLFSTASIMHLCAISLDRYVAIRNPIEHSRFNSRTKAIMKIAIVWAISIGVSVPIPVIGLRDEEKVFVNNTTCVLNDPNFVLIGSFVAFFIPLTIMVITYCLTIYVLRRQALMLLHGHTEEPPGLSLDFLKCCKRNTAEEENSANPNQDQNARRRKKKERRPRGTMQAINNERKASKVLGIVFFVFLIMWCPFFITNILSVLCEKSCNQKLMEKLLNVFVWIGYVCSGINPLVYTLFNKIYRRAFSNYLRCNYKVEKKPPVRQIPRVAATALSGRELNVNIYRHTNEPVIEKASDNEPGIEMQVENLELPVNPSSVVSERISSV

5-HT1A = molecular target: T2, 5-HT1A (Homo sapiens, UniProt P08908); test: 5-HT receptor activity (Table 3), 5-HT1A; assay type: cell-based
T2 sequence (P08908 1-422): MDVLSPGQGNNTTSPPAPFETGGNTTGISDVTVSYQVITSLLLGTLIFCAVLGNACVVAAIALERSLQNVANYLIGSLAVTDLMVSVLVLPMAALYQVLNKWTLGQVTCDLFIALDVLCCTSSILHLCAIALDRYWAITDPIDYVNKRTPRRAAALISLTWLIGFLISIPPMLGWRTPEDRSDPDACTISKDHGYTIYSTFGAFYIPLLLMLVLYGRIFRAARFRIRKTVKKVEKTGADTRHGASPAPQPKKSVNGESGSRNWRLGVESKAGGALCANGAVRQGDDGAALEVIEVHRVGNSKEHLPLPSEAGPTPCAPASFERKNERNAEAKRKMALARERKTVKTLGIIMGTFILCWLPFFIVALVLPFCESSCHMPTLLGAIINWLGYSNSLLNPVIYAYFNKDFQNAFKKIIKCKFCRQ

5-HT4 = 5-HT4 (Homo sapiens, UniProt Q13639); test: 5-HT receptor activity (Table 3), 5-HT4; assay type: cell-based
Chain of 5-HT4 (Q13639 whole entry, species assumed): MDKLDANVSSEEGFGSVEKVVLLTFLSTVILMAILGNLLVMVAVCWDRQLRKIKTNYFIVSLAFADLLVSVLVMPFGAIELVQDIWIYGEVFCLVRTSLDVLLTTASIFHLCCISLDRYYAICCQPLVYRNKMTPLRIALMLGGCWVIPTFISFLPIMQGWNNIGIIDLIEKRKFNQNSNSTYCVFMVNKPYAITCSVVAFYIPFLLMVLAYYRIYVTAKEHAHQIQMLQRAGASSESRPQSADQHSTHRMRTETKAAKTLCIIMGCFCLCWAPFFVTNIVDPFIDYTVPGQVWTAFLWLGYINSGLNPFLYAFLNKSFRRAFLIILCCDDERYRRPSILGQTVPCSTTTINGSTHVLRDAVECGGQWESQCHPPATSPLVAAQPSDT

Plasma PK in dog = assay type: in vivo
Description: (§1) Tables 7a and 7b summarize, among other things, the observed plasma PK properties in animals, for Compound 1: […]

[1] = system: SafetyScreen44™ panel hits; test: Follow up functional assays of SafetyScreen44 hits; set-up: species or system human
Method: Various compounds disclosed herein were subjected to an in vitro SafetyScreen44™ panel for identifying off-target activity. Compounds of interest that are identified in the panel are then tested in follow up functional assays to identify if such compounds have a significant off-target risk. […] It is predicted that other compounds share similar characteristics with compound 1 and also lack of the off-target activity.

5-HT1F = molecular target: T3, 5-HT1F (Homo sapiens, UniProt P30939); test: 5-HT receptor activity (Table 3), 5-HT1F; assay type: cell-based
T3 sequence (P30939 1-366): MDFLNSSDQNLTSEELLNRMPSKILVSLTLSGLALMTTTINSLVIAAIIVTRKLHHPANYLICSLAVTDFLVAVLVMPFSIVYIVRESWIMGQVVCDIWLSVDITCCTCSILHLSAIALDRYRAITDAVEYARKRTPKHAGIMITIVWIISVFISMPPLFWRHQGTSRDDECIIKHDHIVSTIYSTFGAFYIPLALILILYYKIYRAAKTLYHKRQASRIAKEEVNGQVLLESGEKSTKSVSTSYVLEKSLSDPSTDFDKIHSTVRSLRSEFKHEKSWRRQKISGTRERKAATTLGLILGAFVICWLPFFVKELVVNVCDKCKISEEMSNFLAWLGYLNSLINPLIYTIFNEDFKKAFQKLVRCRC

Plasma PK in rat = assay type: in vivo
Description: as §1

5-HT2B = 5-HT2B (Homo sapiens, UniProt P41595); test: 5-HT receptor activity (Table 3), 5-HT2B; assay type: cell-based
Chain of 5-HT2B (P41595 whole entry, species assumed): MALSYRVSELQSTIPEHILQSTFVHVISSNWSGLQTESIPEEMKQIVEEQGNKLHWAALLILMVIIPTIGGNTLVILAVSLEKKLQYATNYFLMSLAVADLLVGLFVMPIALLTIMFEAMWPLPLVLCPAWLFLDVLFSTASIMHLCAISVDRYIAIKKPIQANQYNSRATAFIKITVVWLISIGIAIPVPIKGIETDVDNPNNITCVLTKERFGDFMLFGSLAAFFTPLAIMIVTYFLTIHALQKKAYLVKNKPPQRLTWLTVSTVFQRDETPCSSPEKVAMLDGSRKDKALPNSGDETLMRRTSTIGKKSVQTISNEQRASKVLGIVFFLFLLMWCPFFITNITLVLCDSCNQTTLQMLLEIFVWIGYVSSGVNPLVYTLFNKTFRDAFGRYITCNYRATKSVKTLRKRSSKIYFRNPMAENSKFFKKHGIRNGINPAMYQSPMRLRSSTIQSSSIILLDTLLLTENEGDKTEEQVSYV

Chain of 5-HT1B (P28222 whole entry, species assumed): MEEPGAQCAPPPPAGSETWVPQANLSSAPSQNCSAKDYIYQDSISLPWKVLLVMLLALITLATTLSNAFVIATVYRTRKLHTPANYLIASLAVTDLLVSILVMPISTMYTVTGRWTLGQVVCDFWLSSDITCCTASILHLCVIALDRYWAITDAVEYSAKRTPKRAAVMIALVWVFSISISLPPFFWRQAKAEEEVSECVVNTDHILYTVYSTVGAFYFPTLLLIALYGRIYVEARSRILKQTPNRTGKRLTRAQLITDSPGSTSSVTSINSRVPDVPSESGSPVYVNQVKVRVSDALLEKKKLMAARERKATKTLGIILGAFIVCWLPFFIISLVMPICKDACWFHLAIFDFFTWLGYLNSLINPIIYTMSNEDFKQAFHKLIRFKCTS

Which results are given for Cc1ccc(O)c2c3c([nH]c12)CCNCC3 [Cpd #1 (Pharm-136), 7-Methyl-1,2,3,4,5,6-hexahydroazepino[4,5-b]indol-10-ol]?
pEC50 (5-HT1B): 6.49; Eff (5-HT1B): 74%; pEC50 (5-HT2C; Gq dissociation BRET, HEK293T): 9.30; 5-HT2C BRET Eff (5-HT2C; normalized to % 5-HT stimulation): 101%; pEC50 (5-HT1A): 5.40; Eff (5-HT1A): 73%; EC50 (5-HT4): Not active; AUC(0-t) (Plasma PK in dog; IV, 2 mg/kg): 1200 ng·h/mL; half-life (Plasma PK in dog; IV, 2 mg/kg): 2.84 h; clearance (Plasma PK in dog; IV, 2 mg/kg, read-out: Cltot (converted)): 24.6 mL/min/kg; Vd (Plasma PK in dog; IV, 2 mg/kg, read-out: Vss): 5.15 L/kg; AUC(0-t) (Plasma PK in dog; PO, 10 mg/kg): 5460 ng·h/mL; Vz_F (Plasma PK in dog; PO, 10 mg/kg): 7.648 L/kg; half-life (Plasma PK in dog; PO, 10 mg/kg): 3.21 h; Count (n. of wells) (TA98; TA98 + S9, 1.0E−04M): 0 n. of wells; Significance (TA98; TA98 + S9, 1.0E−04M): Negative; Count (n. of wells) (TA98; TA98 + S9, 1.0E−05M): 3 n. of wells; Significance (TA98; TA98 + S9, 1.0E−05M): Negative; Count (n. of wells) (TA98; TA98 + S9, 5.0E−05M): 0 n. of wells; Significance (TA98; TA98 + S9, 5.0E−05M): Negative; Count (n. of wells) (TA98; TA98 + S9, 5.0E−06M): 9 n. of wells; Significance (TA98; TA98 + S9, 5.0E−06M): Weak positive; Count (n. of wells) (TA98; TA98 − S9, 1.0E−04M): 0 n. of wells; Significance (TA98; TA98 − S9, 1.0E−04M): Negative; Count (n. of wells) (TA98; TA98 − S9, 1.0E−05M): 0 n. of wells; Significance (TA98; TA98 − S9, 1.0E−05M): Negative; Count (n. of wells) (TA98; TA98 − S9, 5.0E−05M): 0 n. of wells; Significance (TA98; TA98 − S9, 5.0E−05M): Negative; Count (n. of wells) (TA98; TA98 − S9, 5.0E−06M): 1 n. of wells; Significance (TA98; TA98 − S9, 5.0E−06M): Negative; Follow up studies [1]: No significant off-; Follow up studies ([1]; listed as compound 1): does not possess significant off-target activity; pEC50 (5-HT1F): 6.34; Eff (5-HT1F): 56%; AUC(0-t) (Plasma PK in rat; IP, 10 mg/kg): 193 ng·h/mL; Cl_F (Plasma PK in rat; IP, 10 mg/kg): 816.02 mL/min/kg; Vz_F (Plasma PK in rat; IP, 10 mg/kg): 225.48 L/kg; half-life (Plasma PK in rat; IP, 10 mg/kg): 3.3 h; AUC(0-t) (Plasma PK in rat; IV, 2.5 mg/kg): 37.5 ng·h/mL; half-life (Plasma PK in rat; IV, 2.5 mg/kg): 3.93 h; clearance (Plasma PK in rat; IV, 2.5 mg/kg, read-out: Cltot (converted)): 1070 mL/min/kg; Vd (Plasma PK in rat; IV, 2.5 mg/kg, read-out: Vss): 0.204 L/kg; pEC50 (5-HT2B): 8.38; Eff (5-HT2B; 5-HT2B, Table 3): 50%; Count (n. of wells) (TA1537; TA1537 + S9, 1.0E−04M): 0 n. of wells; Significance (TA1537; TA1537 + S9, 1.0E−04M): Negative; Count (n. of wells) (TA1537; TA1537 + S9, 1.0E−05M): 1 n. of wells; Significance (TA1537; TA1537 + S9, 1.0E−05M): Negative; Count (n. of wells) (TA1537; TA1537 + S9, 5.0E−05M): 0 n. of wells; Significance (TA1537; TA1537 + S9, 5.0E−05M): Negative; Count (n. of wells) (TA1537; TA1537 + S9, 5.0E−06M): 2 n. of wells; Significance (TA1537; TA1537 + S9, 5.0E−06M): Negative; Count (n. of wells) (TA1537; TA1537 − S9, 1.0E−04M): 0 n. of wells; Significance (TA1537; TA1537 − S9, 1.0E−04M): Negative; Count (n. of wells) (TA1537; TA1537 − S9, 1.0E−05M): 1 n. of wells; Significance (TA1537; TA1537 − S9, 1.0E−05M): Negative; Count (n. of wells) (TA1537; TA1537 − S9, 5.0E−05M): 0 n. of wells; Significance (TA1537; TA1537 − S9, 5.0E−05M): Negative; Count (n. of wells) (TA1537; TA1537 − S9, 5.0E−06M): 0 n. of wells; Significance (TA1537; TA1537 − S9, 5.0E−06M): Negative
